# Test results taken from US11702442B2, “Cyclic dinucleotide compounds as sting agonists” (The Regents of the University of California, priority 2019, dated 2023).
# What was measured:
# STING pathway [1] = assay: IRF3 phosphorylation in RAW 264.7 cells (immunoblot pIRF3 vs β-actin); assay type: cell-based, murine; conditions: RAW 264.7, 1, 5 and 10 μM CDN, 2 h after transfection
# Protocol: FIGS. 2A-2B show IRF3 phosphorylation induced by c-di-GMP and its analogues. […] 1, 5 and 10 μM of each CDN was used to transfect RAW 264.7 cells. Cells were lysed with NP-40 lysis buffer 2 h post transfection, 20 μg of total protein was loaded on SDS-polyacrylamide gel. Proteins were transferred to PVDF membrane after gel electrophoresis, and immunoblotted against pIRF3 and β-actin. […] The y-axis indicates relative intensity of pIRF3 compare to β-actin.
# To analyze the immunostimulatory effects of all synthetic CDNs in greater detail, RAW 264.7 cells were treated with various concentrations of c-di-GMP, c-di-tzGMP, c-di-thGMP, c-GthGMP and c-GtzGMP and the phosphorylation of IRF3 to pIRF3 was evaluated. CDNs were thus transfected into RAW 264.7 murine cells with digitonin as described in previous studies.[7b,16] Cells were then lysed with NP-40 buffer 2 h after transfection, and total protein was collected for immunoblotting against phosphorylated IRF3 (pIRF3) and β-actin. […] Two other biological replicates produced similar trends (See FIG. S2 in Yi et al, ChemBioChem, Volume 21 (2020)).
# Immunoblotting. RAW 264.7 cells were plated on 24-well plates (5×10^5 cells per well) and incubate at 37° C. for 48 h. Cells were then transfected with 1-10 μM of CDN in a permeabilization buffer containing 10 μg/mL digitonin, 50 mM HEPES, pH 7, 100 mM KCl, 3 mM MgCl2, 85 mM sucrose, 1 mM ATP, 0.1 mM DTT, 0.2% BSA for 30 mins at 37° C., then incubated with regular growth medium for 2 h. Cells were lysed with NP-40 lysis buffer containing protease inhibitor cocktail (Roche), PhosSTOP (Roche) and PMSF, and total protein was collected and quantified by BCA assay. Protein extracts were resolved by SDS-PAGE with 7.5% gel and transferred to PVDF membrane. Proteins were detected with the following primary antibodies: rabbit anti-pIRF3 monoclonal antibody (Cell Signaling Technology), mouse anti-β actin monoclonal antibody (Sigma-Aldrich).
# STING pathway [2] = assay: IFN-β mRNA production in RAW 264.7 cells by RT-qPCR; assay type: cell-based, murine
# Protocol: FIGS. 3A-3C provide IFN data. […] RAW 264.7 cells were transfected with 1, 5, 10 μM of c-di-GMP, c-di-^tzGMP, c-G^thGMP, c-di-G^thGMP and c-G^tzGMP, and incubated for 2, 4, 6 h before being lysed by TRIzol. RNA purification and RT-qPCR were conducted following the protocol described in the Experimental Section. FIG. 3B show IFN response after 2, 4, 6 h of incubation with 5 μM of CDNs. […] Two independent assays were performed in triplicates (n=2). Error bars indicate SD. See Yi et al, Tuning the Innante Immune Response to Cyclic Dinucleotides by Using Atomic Mutagenesis, ChemBioChem, Volume 21 (2020).
# As most synthetic c-di-GMP analogues activated IRF3, the inventors analyzed their dose and time dependency for inducing IFN-β mRNA production by using RT-qPCR. RAW 264.7 cells were transfected with 1, 5 and 10 μM of CDNs as described above and incubated for 2, 4 and 6 h. Total RNA was isolated and used for RT-qPCR. As shown in FIGS. 3A-3B, c-di-GMP induced the most IFN-β mRNA production 4 h post transfection, whereas the highest response was observed after 2 h for c-di-tzGMP, c-GthGMP, and c-GtzGMP.
# RT-qPCR. RAW 264.7 cells were plated on 48-well plates (2.5×10^5 cells per well) and transfected with CDN using the same method as above after 48 h of incubation at 37° C. Cells were then incubate with regular growth medium for designated time, and total RNA was isolated with TRIzol® reagent and purified with RNeasy mini kit (Qiagen) following the manufacturer's protocol. Following elution, RNA yields were evaluated using a Nanodrop spectrophotometer (Nanodrop technologies). RNA samples were converted to cDNA with SuperScript III First-Strand Synthesis kit (Invitrogen) with random hexamers following the manufacturer's protocol. Quantitative PCR (SYBR Green) analysis was performed in duplicates on an Applied Biosystems 7300 Real-time PCR system (Invitrogen). Transcription level of IFN-β gene of each sample was normalized to housekeeping gene TBP and then to untreated samples (UT) using the delta-delta CT method.
# rocR = molecular target: T1, rocR (Pseudomonas aeruginosa, UniProt Q9HX69); assay: rocR-mediated CDN hydrolysis monitored by HPLC; assay type: biochemical, P. aeruginosa
# T1 construct: made in house; host or cells: Escherichia coli BL21(DE3)
# From the text: [1a,27] rocR is a PDE that contains an EAL domain and specifically recognizes and cleaves c-di-GMP into the linear dinucleotide pGpG. […] [28a,29]
# RocR is reported to follow Michaelis-Menten kinetics. [27c,28a] Scheme 2a was therefore used to analyze the reaction kinetics, where k1 and k−1 describe the enzyme/substrate association and dissociation, respectively, while k2 reflects the cleavage reaction. Equations (10)-(13) were thus used to extract the rate constants. When “asymmetrical” mixed c-di-GMP analogues are treated with rocR, the enzyme may, in principle, recognize and cleave either phosphodiester bonds, producing pN1pN2 and pN2pN1. Assuming the two products result from different binding orientation of the heterodimeric CDNs, Scheme 2b is therefore introduced to model the cleavage reactions, where k1, k−1 and k2 reflect the association/dissociation and cleavage of the heterodimeric CDN in one orientation, respectively, and k3, k−3 and k4 reflect the other. Equations (14)-(19) were used to extract the rate constants.
# Equations(10)-(19) d[S]/dt=−k1[E][S]+k−1[ES] (10) d[E]/dt=−k1[E][S]+k−1[ES]+k2[ES] (11) d[P]/dt=k2[ES] (12) d[ES]/dt=k1[E][S]−k−1[ES]−k2[ES] (13) d[S]/dt=−k1[E][S]+k−1[ES1]−k3[E][S]+k−3[ES2] (14) d[P1]/dt=k2[ES1] (15) d[P2]/dt=k4[ES2] (16) d[E]/dt=−(k1+k3)[E][S]+(k−1+k2)[ES1]+[…][ES2]] (17) d[ES1]/dt=k1[E][S]−k−1[ES1]−k2[ES1] (18) d[ES2]/dt=k3[E][S]−k−3[ES2]−k4[ES2] (19)
# CDN hydrolysis with rocR. […] of CDN was incubated with 100 nM of rocR in a buffer containing 100 mM Tris-HCI, pH 8, 20 mM KCI, 25 mM MgCl2 at 37° C. Aliquots of the reaction mixture were taken out at designated time points and quenched with 100 mM CaCl2. All aliquots were filtered before subjected to reverse-phase HPLC analysis. The reaction mixture was separated by Sepax Bio C-18 column (250×10 mm, 5 µm particle size) with a gradient of 0.1-15% of 10 mM NH4OAc, pH7 in Me0H in 12 minutes at 25° C. or 50° C. (only for reactions of c-GtzGMP and c-di-tzGMP) on an Agilent 1200 series HPLC system (Agilent Technologies).
# Data Analysis and curve fitting. […] The relative concentrations were plotted against time.
# T1 sequence (Q9HX69 whole entry): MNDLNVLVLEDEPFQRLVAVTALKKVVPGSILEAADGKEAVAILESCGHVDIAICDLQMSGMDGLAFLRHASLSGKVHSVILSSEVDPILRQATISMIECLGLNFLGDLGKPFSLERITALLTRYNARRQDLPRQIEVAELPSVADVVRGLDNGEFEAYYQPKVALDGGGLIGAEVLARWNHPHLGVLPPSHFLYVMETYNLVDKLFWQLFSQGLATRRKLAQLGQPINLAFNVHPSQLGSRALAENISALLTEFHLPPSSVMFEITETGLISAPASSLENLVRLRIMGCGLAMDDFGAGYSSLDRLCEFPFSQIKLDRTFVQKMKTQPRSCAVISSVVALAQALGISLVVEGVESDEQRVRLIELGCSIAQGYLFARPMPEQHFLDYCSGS
smiles,measurement,setting,value
Nc1nc2c([C@@H]3O[C@@H]4COP(=O)(O)O[C@H]5[C@@H](O)[C@H](n6cnc7c(=O)[nH]c(N)nc76)O[C@@H]5COP(=O)(O)O[C@H]4[C@H]3O)snc2c(=O)[nH]1 [c-G^tzGMP],"IRF3 phosphorylation (pIRF3), concentration dependence",STING pathway [1],Increasing amounts of phosphorylated IRF3
same,IFN-β mRNA production / IFN response,"STING pathway [2]; RAW 264.7, 1, 5, 10 μM CDN, 2, 4, 6 h",earlier and stronger maximum IFN-β response compared to the native c-di-GMP
same,time post transfection of highest IFN-β mRNA production,"STING pathway [2]; RAW 264.7, 1, 5 and 10 μM CDN, 2, 4 and 6 h tested",2 h
same,order of IFN-β induction,"STING pathway [2]; RAW 264.7, RT-qPCR, FIG. 3",c-GthGMP>c-di-tzGMP>c-GtzGMP>c-di-GMP>c-di-thGMP
same,k2 (cleavage reaction),"rocR; 100 nM rocR, 37° C.",3.07 ± 0.25 s⁻¹
same,k2,"rocR; 100 nM rocR, 37° C., Table 3",0.096 ± 0.091 s⁻¹
same,k3,"rocR; 100 nM rocR, 37° C., Table 3",3.07 ± 0.25 s⁻¹
same,k3,"rocR; 100 nM rocR, 37° C., association in second orientation of heterodimeric CDN",1.8e+06 ± 100000 M⁻¹ s⁻¹
same,k4,"rocR; 100 nM rocR, 37° C., cleavage in second orientation",0.34 ± 0.01 s⁻¹
same,k−3,"rocR; 100 nM rocR, 37° C., dissociation in second orientation",0.135 ± 0.007 s⁻¹
same,k1,"rocR; 100 nM rocR, 37° C., enzyme/substrate association",1.85e+06 ± 70000 M⁻¹ s⁻¹
same,order of gradually reduced rocR hydrolysis rate,rocR; FIG. 10F,"c-di-GMP, c-di-^tzGMP, c-G^tzGMP, c-G^thGMP and lastly c-di-^thGMP"
same,final percentage of product P1,rocR; Scheme 2b,58%
same,final percentage of product P2,rocR; Scheme 2b,42%
same,products of rocR-mediated cleavage,"rocR; mixed CDNs, HPLC",two products in nearly the same amount
